Reference: patent EP1734039A1, “Aryl urea compounds as BETA-secretase inhibitors” (Esbatech AG, priority 2005, dated 2006)
Blank lines part the entries; values can stand above or below the compound they belong to.

Experiments:
[1] = tested on: Aβ1-40 secretion; test: Aβ1-40 (Sw) bioassay (cell-based, ELISA); details: for IC50: Homo sapiens, concentration that reduces Aβ1-40 secretion to 50 %, supernatant of Swedish APP695 transgenic HEK293 cells
From the text: (§1) The tests performed were a) Aβ1-40 (Sw) bioassay, which measures the amount of the amyoid peptide Aβ1-40 in the supernatant of Swedish APP695 transgenic HEK293 cells in the presence of the various BACE inhibitors via ELISA (enzyme-linked immunosorbent assay). […] A SEAP-APP(Sw)695 fusion protein is transiently expressed in HEK293 cells in the presence of the various BACE inhibitors. Secretion of the SEAP moiety upon cleavage at the APP β-site is quantitated via a luminescence readout. […] The compounds were docked with the FFLD approach (Budin et al., Biol. Chem. 382, 1365-1372, 2001) and their binding energy was evaluated with the LIECE method (Huang and Caflisch, J. Med. Chem. 47, 5791-5797, 2004). The affinity evaluated with LIECE is in the low micromolar range for most of these compounds.

[2] = tested on: SEAP-APP(Sw)695 fusion protein; test: SEAP bioassay (cell-based, luminescence readout); details: transiently transfected HEK293 cells; for IC50: Homo sapiens, concentration that reduces secreted SEAP activity to 50 %
From the text: as §1

[3] = target: recombinant BACE enzyme (Homo sapiens, UniProt P56817); test: FRET assay (in vitro); assay type: biochemical; details: for IC50: concentration that reduces the activity of BACE to 50 %
Sequence of recombinant BACE enzyme (P56817 46-501): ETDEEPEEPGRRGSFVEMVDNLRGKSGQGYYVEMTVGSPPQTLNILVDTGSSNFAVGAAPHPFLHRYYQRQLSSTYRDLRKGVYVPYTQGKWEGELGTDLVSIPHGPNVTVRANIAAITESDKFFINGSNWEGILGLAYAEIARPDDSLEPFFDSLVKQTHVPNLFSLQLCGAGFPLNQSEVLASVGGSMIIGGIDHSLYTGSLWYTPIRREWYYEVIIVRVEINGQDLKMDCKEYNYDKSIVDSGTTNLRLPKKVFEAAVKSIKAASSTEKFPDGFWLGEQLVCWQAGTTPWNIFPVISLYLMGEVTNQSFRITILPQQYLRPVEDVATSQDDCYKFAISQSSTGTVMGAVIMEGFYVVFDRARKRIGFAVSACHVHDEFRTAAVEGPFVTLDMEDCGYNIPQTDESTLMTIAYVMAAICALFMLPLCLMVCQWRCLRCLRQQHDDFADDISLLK

% reduction of the activity of BACE ([3]; at 500 µM): 0 (500 µM) %
IC50 [1]: 18 µM
Compound: Cc1cc(C)cc(NC(=O)NCc2nnc(SCc3ccccc3)n2C)c1 [Compound B1]
% reduction of secreted SEAP activity ([2]; at 50 µM): 0 (50 µM) %

% reduction of the activity of BACE ([3]; at 250 µM): 0 (250 µM) %
IC50 [1]: 40 µM
Compound: CSc1nnc(CCNC(=O)Nc2ccc(Cl)c(C(F)(F)F)c2)n1C(C)C [Compound B2]
% reduction of secreted SEAP activity ([2]; at 12.5 µM): 0 (12.5 µM) %

IC50 [1]: 1.6 µM
IC50 [2]: 10 µM
Compound: CCSc1nsc(NC(=O)Nc2cccc(C(C)=O)c2)n1 [Compound B3]

% reduction of the activity of BACE ([3]; at 500 µM): 0 (500 µM) %
IC50 [1]: 13 µM
Compound: COc1cccc(NC(=O)Nc2nnc(C(C)Oc3ccccc3)s2)c1 (stereo not drawn) [Compound B4]
% reduction of secreted SEAP activity ([2]; at 12.5 µM): 0 (12.5 µM) %

% reduction of the activity of BACE ([3]; at 50 µM): 0 (50 µM) %
IC50 [1]: 22 µM
Compound: Cc1cccc(NC(=O)NCC2CCN(c3ccc(S(=O)(=O)N4CCOCC4)cc3)CC2)c1 [Compound C3]
% reduction of secreted SEAP activity ([2]; at 12.5 µM): 0 (12.5 µM) %

% reduction of the activity of BACE ([3]; at 500 µM): 0 (500 µM) %
Compound: CN(C)c1nc(OCCNC(=O)Nc2ccccc2)nc(N2CCCCC2)n1 [Compound C4]
% reduction of Aβ1-40 secretion ([1]; at 12.5 µM, Swedish APP695 transgenic HEK293 cells): 31 (12.5 µM) %
% reduction of secreted SEAP activity ([2]; at 12.5 µM): 0 (12.5 µM) %

% reduction of the activity of BACE ([3]; at 500 µM): 0 (500 µM) %
IC50 [1]: 10 to 20 µM
Compound: CCNc1nc(NC(C)(C)C)nc(OCCNC(=O)Nc2ccccc2)n1 [Compound C5]
% reduction of secreted SEAP activity ([2]; at 25 µM): 0 (25 µM) %

More lines, now with the values behind:

Compound: CN(C)c1ccc(NC(=O)Nc2cc(C(F)(F)F)cc(C(F)(F)F)c2)cc1C(=O)NCCCN1CCOCC1 [Compound A1]
IC50 [1]: 3 µM
IC50 [2]: 3.5 µM

Compound: COCCCNC(=O)c1cc(NC(=O)Nc2cc(C(F)(F)F)cc(C(F)(F)F)c2)ccc1N(C)C [Compound A2]
IC50 [3]: 284 µM
IC50 [1]: 3.2 µM
% reduction of secreted SEAP activity ([2]; at 3 µM): 27 (3 µM) %

Compound: CCOCCCNC(=O)c1cc(NC(=O)Nc2cccc(Cl)c2)ccc1N(C)C [Compound A3]
IC50 [1]: 2.6 µM
% reduction of secreted SEAP activity ([2]; at 3 µM): 23 (3 µM) %

Compound: COCCCNC(=O)c1cc(NC(=O)Nc2cccc(OC)c2)ccc1N(C)C [Compound A4]
% reduction of the activity of BACE ([3]; at 100 µM): 33 (100 µM) %
IC50 [1]: 7.5 µM
% reduction of secreted SEAP activity ([2]; at 6 µM): 21 (6 µM) %

Compound: CCCNC(=O)c1cc(NC(=O)Nc2cccc(OC)c2)ccc1N(C)C [Compound A5]
% reduction of the activity of BACE ([3]; at 100 µM): 16 (100 µM) %
IC50 [1]: 14.3 µM
% reduction of secreted SEAP activity ([2]; at 6 µM): 0 (6 µM) %

Compound: Cc1ccc(NC(=O)Nc2ccc(N(C)C)c(C(=O)NCCCN3CCOCC3)c2)cc1C [Compound A6]
% reduction of the activity of BACE ([3]; at 100 µM): 21 (100 µM) %
IC50 [1]: 23 µM
% reduction of secreted SEAP activity ([2]; at 12.5 µM): 19 (12.5 µM) %

Compound: COCCNC(=O)c1cc(NC(=O)Nc2cccc(C)c2)ccc1N(C)C [Compound A7]
% reduction of the activity of BACE ([3]; at 100 µM): 0 (100 µM) %
IC50 [1]: 12.9 µM
% reduction of secreted SEAP activity ([2]; at 12.5 µM): 0 (12.5 µM) %

Compound: Cc1cccc(NC(=O)Nc2ccc(N(C)C)c(C(=O)NCCc3ccccc3)c2)c1 [Compound A8]
% reduction of the activity of BACE ([3]; at 100 µM): 35 (100 µM) %
IC50 [1]: 5.6 µM
% reduction of secreted SEAP activity ([2]; at 3 µM): 14 (3 µM) %

Compound: COCCCNC(=O)c1cc(NC(=O)Nc2ccc(Cl)c(Cl)c2)ccc1N(C)C [Compound A9]
IC50 [3]: 46 µM
IC50 [1]: 5.9 µM
% reduction of secreted SEAP activity ([2]; at 3 µM): 17 (3 µM) %

Compound: COc1cc(NC(=O)Nc2ccc(N(C)C)c(C(=O)NCc3ccc(F)cc3)c2)cc(OC)c1 [Compound A10]
IC50 [3]: 64 µM
IC50 [1]: 3.1 µM
% reduction of secreted SEAP activity ([2]; at 1.6 µM): 10 (1.6 µM) %

Compound: CCCNC(=O)c1cc(NC(=O)Nc2ccc(CC)cc2)ccc1N(C)C [Compound A11]
% reduction of the activity of BACE ([3]; at 200 µM): 20 (200 µM) %
IC50 [1]: 5.2 µM
% reduction of secreted SEAP activity ([2]; at 6 µM): 0 (6 µM) %

Compound: CN(C)c1ccc(NC(=O)Nc2cc(C(F)(F)F)cc(C(F)(F)F)c2)cc1C(=O)NCc1ccc(F)cc1 [Compound A12]
IC50 [3]: 131 µM
IC50 [1]: 4.2 µM
% reduction of secreted SEAP activity ([2]; at 1.6 µM): 14 (1.6 µM) %

Compound: COCCCNC(=O)c1cc(NC(=O)Nc2cccc(Br)c2)ccc1N(C)C [Compound A13]
% reduction of the activity of BACE ([3]; at 100 µM): 37 (100 µM) %
IC50 [1]: 3.8 µM
% reduction of secreted SEAP activity ([2]; at 3 µM): 25 (3 µM) %

Compound: CCOCCCNC(=O)c1cc(NC(=O)Nc2ccccc2Br)ccc1N(C)C [Compound A14]
% reduction of the activity of BACE ([3]; at 100 µM): 0 (100 µM) %
IC50 [1]: 7.8 µM
% reduction of secreted SEAP activity ([2]; at 6 µM): 0 (6 µM) %
